Data taken from patent publication US20160158368A1, “METHODS AND COMPOSITIONS FOR THE TREATMENT OF HISTIOCYTOSIS” (Therapure Biopharma Inc., priority 2014, published 2016).

Assays:
[1] = tested on: SU-DHL-1 cells; test: PrestoBlue cell viability assay, SU-DHL-1 cells; type: cell-based, human; conditions: for growth inhibition: SU-DHL-1 cells
[2] = tested on: U937 cells; test: PrestoBlue cell viability assay, U937 cells; type: cell-based, human; conditions: for growth inhibition: U937 cells

## Nc1nc(Cl)nc2c1ncn2C1CC(O)C(CO)O1 (stereo not drawn) [cladribine, 5-(6-amino-2-chloro-purin-9-yl)-2-(hydroxymethyl)oxolan-3-ol]
[1]; Homo sapiens, SU-DHL-1, 48 hours, cell viability, n=3, read-out: average half maximal inhibitory concentration (IC50)
  IC50: 204 nM
[1]
  growth inhibition: dose-dependent growth inhibition
[2]; Homo sapiens, U-937, U937, 48 hours, cell viability, n=3, read-out: average half maximal inhibitory concentration (IC50)
  IC50: 42 nM
[2]
  growth inhibition: dose-dependent growth inhibition

## hemoglobin: human hemoglobin, a CD163 ligand, unconjugated control
[1]
  growth inhibition: not
[2]
  growth inhibition: not
